# Values quoted from earlier work, collected in paper PMC8583936, “Machine Learning Assisted Approach for Finding Novel High Activity Agonists of Human Ectopic Olfactory Receptors” (International Journal of Molecular Sciences, 2021).
# Biological target: T1, OR1A1 (Homo sapiens, UniProt Q9P1Q5)
# T1 sequence (Q9P1Q5 1-309): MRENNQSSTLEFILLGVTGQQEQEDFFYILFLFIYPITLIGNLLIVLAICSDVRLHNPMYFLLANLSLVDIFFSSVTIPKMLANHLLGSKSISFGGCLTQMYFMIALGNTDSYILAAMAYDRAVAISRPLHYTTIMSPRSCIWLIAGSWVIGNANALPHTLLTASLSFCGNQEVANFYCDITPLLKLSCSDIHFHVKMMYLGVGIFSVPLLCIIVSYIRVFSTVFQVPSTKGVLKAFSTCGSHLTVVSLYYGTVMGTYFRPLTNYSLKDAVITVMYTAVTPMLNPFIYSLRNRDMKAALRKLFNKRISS
# Conditions: Table S1; ref Supplement references [1]-[9] as printed after each odorant name; cited from earlier work
row,SMILES,Class (agonist / non-agonist / conflicting info.) for OR1A1
1,C=CC(C)(O)CCC=C(C)CCC=C(C)C (mixture of isomers) [Nerolidol],Agonist
2,"C=C(C)C1CC=C(C)[C@@H](O)C1 (single isomer, unassigned; (-)) [(-)-Carveol]",Agonist
3,"C=C(C)C1CC=C(C)C(OC(C)=O)C1 (single isomer, unassigned; (-)) [(-)Carvyl acetate mix]",Non-agonist
4,"ClC=CCl [1,2-dichlorethylene]",Non-agonist
5,"CC(C)C12CCC(C)(CC1)O2 [1,4-cineole]",Non-agonist
6,"OCCCCCCCCCO [1,9 nonanediol]",Non-agonist
7,"CCc1nccnc1CC [2,3-diethyl pyrazine]",Conflicting info.
8,"Cc1cnc(C)cn1 [2,5 dimethyl pyrazine]",Non-agonist
9,CCCCCCC(Br)C(=O)O (centres unmarked) [2-bromo octanoic acid],Non-agonist
10,CCCC(Br)C(=O)O (centres unmarked) [2-bromovaleric acid],Non-agonist
11,CCc1ccccc1O [2-ethylphenol],Agonist
12,COc1cnccn1 [2-methoxypyrazine],Non-agonist
13,Cc1cnccn1 [2-methylpyrazine],Non-agonist
14,CCCCCCCCCCCCCC(C)=O [2-pentadecanone],Non-agonist
15,CCCCCC=CCCC=O [4-decenal],Agonist
16,CCCCCCCC(=O)CCCCCCC [8-pentadecanone],Non-agonist
17,CC1(C)[C@H]2CC=C(C=O)[C@@H]1C2 [(R)-(-)-myrtenal],Non-agonist
18,O=C(O)CCCCC(=O)O [Adipic acid],Non-agonist
19,COc1ccccc1 [Anisole],Non-agonist
20,CC(C)(C)c1ccc(CCC=O)cc1 [Bourgeonal],Conflicting info.
21,CCC(Br)C(=O)O (centres unmarked) [Bromobutyric acid],Non-agonist
22,CCCCS [Butane thiol],Non-agonist
23,CC1C(C)(C)C2=C(C(=O)CCC2)C1(C)C (centres unmarked) [Cashmeran],Non-agonist

row,SMILES,Class (agonist / non-agonist / conflicting info.) for OR1A1
1,CC(=O)c1cc(C(C)(C)C)cc2c1CCC2(C)C [Celestolide],Agonist
2,CC(C)=CCCC(C)CC(=O)O (centres unmarked) [Citronellic acid],Non-agonist
3,CC1C/C=C/CCCCCCCCC(=O)C1 (centres unmarked) [Cosmone],Agonist
4,O=C1CCCCCCCCC1 [Cyclodecanone],Non-agonist
5,C1CCCCCCCCCCCCCC1 [Cyclopentadecane],Non-agonist
6,OC1CCCCCCCCCCCCCC1 [Cyclopentadecanol],Non-agonist
7,O=C1CCCCCCCCCC1 [Cycloundecanone],Non-agonist
8,"CCCCCCC/C=C/C=C/C=O [E,E-2,4-dodecadienal]",Non-agonist
9,"CC/C=C/CC/C=C/C=O [E,E-26-nonadienal]",Non-agonist
10,CCCCC/C=C/CCC=O [E-4-decanal],Agonist
11,O=C1CCCCCCCCCCCCCCO1 [Exaltolide],Non-agonist
12,CC(C)=CCC/C(C)=C/CC/C(C)=C/CO [Farnesol],Non-agonist
13,CC1COCc2cc3c(cc21)C(C)(C)C(C)C3(C)C (centres unmarked) [Galaxolide],Non-agonist
14,O=C1CCCCCC/C=C\CCCCCCC1 [Globanone],Non-agonist
15,O=C1CCCCCCCCC/C=C/CCCO1 [Habanolide],Non-agonist
16,CCC(=O)OCC(C)(C)OC(C)C1CCCC(C)(C)C1 (centres unmarked) [Helvetolide],Non-agonist
17,CCCCCCCC(=O)OCCC(C)C [Isoamyl octanoate],Non-agonist
18,CC(C)CS [Isobutyl mercaptan],Non-agonist
19,CCCCCCCC(=O)OC [Methyl octanoate],Non-agonist
20,CCCC(C)C=O (centres unmarked) [Methyl pentanal],Non-agonist
21,C[C@@H]1CCCCCCCCCCCCC(=O)C1 [Muscone],Conflicting info.
22,CC(C)=CCC/C(C)=C\CO [Nerol],Agonist

# Same assay, conditions: cited from earlier work
row,SMILES,Class (agonist / non-agonist / conflicting info.) for OR1A1
1,C=CC(O)CCCCC (centres unmarked) [1-octen-3-ol],Non-agonist
2,"Cc1nccnc1C [2,3-dimethylpyrazine]",Non-agonist
3,CCCCC(Br)C(=O)O (centres unmarked) [2-bromohexanoic acid],Non-agonist
4,CCc1cnccn1 [2-ethylpyrazine],Non-agonist
5,COc1ccc(C)cc1 [4-methylanisole],Non-agonist
6,CC(C)=CCC[C@@H](C)CCO [(R)-(+)-citronellol],Agonist
7,COC(OC)c1ccccc1 [Benzaldehyde dimethyl acetal],Non-agonist
8,CC(C)=CCCC(C)=CC#N [Citralva],Non-agonist
9,O=C1CCCCCCCCCCCCCC1 [Cyclopentadecanone],Non-agonist
10,c1ccc2[nH]ccc2c1 [Indole],Non-agonist
11,C/C=C/c1ccc(OC)c(OC)c1 [Methyl isoeugenol],Agonist
12,CCC(=O)OC [Methyl propionate],Non-agonist
13,CC(=O)c1c(C)c([N+](=O)[O-])c(C(C)(C)C)c([N+](=O)[O-])c1C [Musk ketone],Non-agonist
14,CC(C)=CCC/C(C)=C\COC(=O)C(C)C [Neryl isobutyrate],Non-agonist
